Results taken from US20060178357A1, “Chphalosporin-derived mercaptans as inhibitors of serine and metallo-beta-lactamases” (priority 2005, published 2006).

Tests used:
[1] = test system: class B β-lactamases (L1 metallo-β-lactamase derived from Stenotrophomonas maltophilia; metallo-β-lactamase derived from Bacillus cereus); assay: β-lactamase inhibition (IC50, nitrocefin hydrolysis) against class B metallo-β-lactamases; assay type: biochemical; conditions: 4 min incubation of inhibitor and enzyme, substrate nitrocefin, 480 nm; statement in words summarising Table 1
Experimental: (§1) Representative compounds of the invention were evaluated as inhibitors of two serine β-lactamases: Enterobacter cloacae P99 (class C), TEM-1 (class A), as well as two class B enzymes: the L1 metallo-β-lactamse derived from Stenotrophomonas maltophilia) and the metallo-β-lactamase derived from the Bacillus cereus microorganism. The IC50 value of each compound was determined as follows. Assay method involves 4 min incubation of a solution of inhibitor and enzyme (0.1 to 1 μM in enzyme), followed by transfer of an aliquot into a dilute solution of the substrate nitrocefin. Hydrolysis is monitored spectrophotometrically at 480 nm for 1 min. The rate is constant throughout this period. Error is ±10%, based on multiple experiments.

[2] = target: Enterobacter cloacae P99 (class C) β-lactamase (Enterobacter cloacae, UniProt P05364); assay: β-lactamase inhibition (IC50, nitrocefin hydrolysis) against class C serine β-lactamase; assay type: biochemical; conditions: 4 min incubation of inhibitor and enzyme, substrate nitrocefin, 480 nm; comparison in words summarising Table 1
Experimental: as §1

Enterobacter cloacae P99 (class C) β-lactamase, sequence (P05364 21-381): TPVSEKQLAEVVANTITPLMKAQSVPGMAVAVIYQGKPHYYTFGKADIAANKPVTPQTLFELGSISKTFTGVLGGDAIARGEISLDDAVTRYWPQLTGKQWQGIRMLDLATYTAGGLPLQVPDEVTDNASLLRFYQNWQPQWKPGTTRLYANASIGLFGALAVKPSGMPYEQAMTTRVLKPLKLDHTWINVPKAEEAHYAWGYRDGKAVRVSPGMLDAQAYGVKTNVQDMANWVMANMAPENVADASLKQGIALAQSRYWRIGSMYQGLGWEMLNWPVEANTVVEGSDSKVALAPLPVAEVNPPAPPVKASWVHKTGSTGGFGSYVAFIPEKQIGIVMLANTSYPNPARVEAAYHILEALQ

Structure (SMILES) | ability to inhibit the class B β-lactamases [1] | inhibition activity against a representative class C β-lactamase relative to tazobactam [2]
CC(=O)OCC1=C(C(=O)[O-])N2C(=O)C(CS)C2SC1.[Na+] (stereo not drawn) [Compound 12, Sodium salt of 7β-(mercaptomethyl)cephalosporanate] | possess the ability to inhibit the class B β-lactamases | –
CC(=O)OCC1=C(C(=O)[O-])N2C(=O)C(CS)C2S(=O)(=O)C1.[Na+] (stereo not drawn) [Compound 15, Sodium salt of 7β-(mercaptomethyl)cephalosporanate-1,1-dioxide] | possess the ability to inhibit the class B β-lactamases | –
CC(=O)OCC1=C(C(=O)[O-])N2C(=O)C(CS)C2[S+]([O-])C1.[Na+] (stereo not drawn) [Compound 17, Sodium salt of 7β-(mercaptomethyl)cephalosporanate-1β-oxide] | possess the ability to inhibit the class B β-lactamases | –
CC(=O)OCC1=C(C(=O)[O-])N2C(=O)C(CS)C2[S+]([O-])C1.[Na+] (stereo not drawn) [Compound 19, Sodium salt of 7α-(mercaptomethyl)cephalosporanate-1β-oxide] | possess the ability to inhibit the class B β-lactamases | –
CC(=O)OCC1=C(C(=O)[O-])N2C(=O)C(CS)C2S(=O)(=O)C1.[Na+] (stereo not drawn) [Compound 22, Sodium salt of 7α-(mercaptomethyl)cephalosporanate-1,1-dioxide] | possess the ability to inhibit the class B β-lactamases | superior to tazobactam
CC(=O)OCC1=C(C(=O)[O-])N2C(=O)C(CS)C2SC1.[Na+] (stereo not drawn) [Compound 26, Sodium salt of 7α-(mercaptomethyl)cephalosporanate] | possess the ability to inhibit the class B β-lactamases | superior to tazobactam
CC(=O)OCC1=C(C(=O)[O-])N2C(=O)C(CS)C2[S+]([O-])C1.[Na+] (stereo not drawn) [Compound 29, Sodium salt of 7α-(mercaptomethyl)cephalosporanate-1α-oxide] | possess the ability to inhibit the class B β-lactamases | superior to tazobactam
C[C@]1(Cn2ccnn2)[C@H](C(=O)O)N2C(=O)C[C@H]2S1(=O)=O [tazobactam, reference compound] | does not possess such ability | –
